The nature of one series: Metabolic stability. Type of series: in vitro ADME. As to conditions: mouse, CD-1 female mice liver S9 fraction, 60 min, mono-exponential decay model, read-out: Half-life (T1/2). The protocol: All incubations were performed minimally in triplicate. A total of 1 mL of mice liver S9 fraction (XenoTech, Kansas City, KS, USA) was fortified with 50 μL of NADPH-regenerating solution A and 10 μL of solution B (Corning BD Biosciences catalog no. 451200) and preincubated at 37 °C for 5 min prior to the addition of PC206. Immediately after fortification of PC206 into the mice liver S9 fraction containing the NADPH-regeneration system, the sampling points were taken at 2, 5, 10, 15, 30, 45 and 60 min for metabolic stability experiments (i.e., the substrate concentration was 10 μM). Samples of 50 μL were taken and mixed with 250 μL of the internal standard solution (caffeine) in microcentrifuge tubes. The samples were centrifuged at 12,000× g for 10 min and 200 μL of the supernatant was transferred into an injection vial for HPLC-MS analysis. A Q Exactive Orbitrap Mass Spectrometer was interfaced with a Vanquish Flex UHPLC system (Thermo Fisher Scientific, Rochester, NY, USA). […] Targeted drug quantification was performed by MS detection using specific precursor masses based on monoisotopic masses (i.e., [M + H]^+ ions). Quantification was performed by extracting specific precursor ions using a 5 ppm mass window.

Series [1] is described as follows: Initial safety assessment in cows. Type of series: in vivo. As to conditions: single intramammary infusion of 100, 250 or 500 mg. As to the method:
The innocuity of PC206 was evaluated in cows, as previously described for other test substances. Following morning milking, each of the four mammary gland quarters […] was infused with various doses of PC206 (100, 250, 500 mg) or saline as a negative control. […] Cows were milked using an individual quarter-milking unit in order to measure individual quarter-milk production. PC206 concentration in milk was also measured; milk samples were diluted with an equal volume of isopropanol and washed 3 times with hexane. PC206 was extracted using ethyl acetate, filtered on Na2SO4, and evaporated. The dried samples were diluted 80:20 in ACN:H2O containing an internal standard. The content of PC206 was determined using single-ion monitoring (SIMS) on UPLC-MS.

“Also recorded” adds a separate entry of the source.

On to `CCCCCCNc1cc(N)nc(N)n1` [PC206], for which, in the series “Metabolic stability”, the half-life at 10 µM came out at 1.39 h. For the same compound, in series [1], the Body temperature result is “around 38 °C” and the “Redness or swelling of quarters at milking” value is “Neither redness nor swelling was observed”. Also, in series [1] (69 h), the “Somatic cell counts and quarter-milk production” value is “remained unaffected; also recorded: did not impact somatic cells count”.

(Values after article PMC10451377, “Rationally Designed Pyrimidine Compounds: Promising Novel Antibiotics for the Treatment of Staphylococcus aureus-Associated Bovine Mastitis” (Antibiotics, 2023).)
